Article PMC8752633 (2022)

Columns and labels:
[1] = tested on: Can preQ1-II riboswitch WT (RNA, riboswitch) UGUGGUUCGCAACCAUCCCACAUAAAAAAACUAG; assay: X-ray crystallography, 2.60 Å; settings: 80 mM K+ (KCl), 12 mM Na+ (NaCl), 2 mM hexammine cobalt(III); 40 mM sodium cacodylate pH 5.5, 30% MPD, 20 °C; folded with Mg2+
[2] = tested on: Can preQ1-II riboswitch WT (RNA, riboswitch) UGUGGUUCGCAACCAUCCCACAUAAAAAAACUAG; assay: ITC (PEAQ-ITC, single-sites model); settings: 100 mM Na+ (NaCl), 4 mM Mg2+; 50 mM Na-HEPES pH 7.0, 25 °C; apparent; average over two cooperative sites
[3] = tested on: Hin riboswitch WT (RNA, riboswitch) GUAGUUCGCAAACCUCCUACAAUAAAAAACUAG; assay: ITC (PEAQ-ITC, single-sites model); settings: 100 mM Na+ (NaCl), 4 mM Mg2+; 50 mM Na-HEPES pH 7.0, 25 °C; apparent; average over two cooperative sites
[4] = tested on: Ngo riboswitch WT (RNA, riboswitch) CGCGGUUCGCAAACCUCCCGCGUUACCAAAACUAG; assay: ITC (PEAQ-ITC, single-sites model); settings: 100 mM Na+ (NaCl), 4 mM Mg2+; 50 mM Na-HEPES pH 7.0, 25 °C; apparent; average over two cooperative sites
[5] = tested on: Can preQ1-II riboswitch C17U (RNA, riboswitch) UGUGGUUCGCAACCAUUCCACAUAAAAAAACUAG; assay: ITC (VP-ITC, two interdependent non-equivalent sites model); settings: 100 mM Na+ (NaCl), 4 mM Mg2+; 50 mM Na-HEPES pH 7.0, 25 °C; macroscopic, second binding event (KD1 3.13 µM)
[6] = tested on: Can preQ1-II riboswitch C31U (RNA, riboswitch) UGUGGUUCGCAACCAUCCCACAUAAAAAAAUUAG; assay: as above; settings: 100 mM Na+ (NaCl), 4 mM Mg2+; 50 mM Na-HEPES pH 7.0, 25 °C; macroscopic, first binding event (KD2 10.26 µM)

binding [1]: yes | KD, app [2]: 0.032 ± 0.002 µM | KD, app [3]: 0.0529 ± 0.0002 µM | KD, app [4]: 0.0505 ± 0.0013 µM | KD2 [5]: 1.30 µM | KD1 [6]: 6.64 µM
SMILES: NCc1c[nH]c2nc(N)[nH]c(=O)c12
